Source: ChEMBL document CHEMBL1914382, “Fragment based discovery of a novel and selective PI3 kinase inhibitor” (Bioorg Med Chem Lett, 2011)

Columns and labels:
[1] = Metabolic stability in human liver microsomes; assay type: ADME, Microsome; details: read-out: Stability
[2] = Metabolic stability in rat liver microsomes; assay type: ADME, Microsome; details: read-out: Stability
[3] = Permeability of the compound by PAMPA; assay type: ADME; details: read-out: permeability

- microsomal CLint [1]: 10 µL/min/mg
- microsomal CLint [2]: 15 µL/min/mg
- Papp [3]: 13.6 ×10⁻⁶ cm/s
SMILES: CC(=O)Nc1cn2cc(/C=C3\SC(=O)NC3=O)ccc2n1
